The text below walks through data of patent US12409176B2, “Methods of treating acute depression” (INTRA-CELLULAR THERAPIES, INC., priority 2018, dated 2025).

Some results are limits rather than exact numbers.

Data set [1] can be described thus: Antidepressant-like behaviors in rodents. It is filed as in vivo.
In data set [2] the target is serotonin transporter (SERT) (Homo sapiens, UniProt P31645). The data set can be described thus: Comparative serotonin transporter (SERT) inhibition among antipsychotic agents (FIG. 3). The conditions noted are these: FIG. 3, compared among antipsychotic drugs. Format: biochemical.
The next data set has as its system phosphor-mTOR. The conditions noted are these: single antidepressant-effective dose; prefrontal cortex and hippocampus of mice and rats; cited from earlier work.
In data set [3] the test system is mTORC1 signaling pathway (AKT Thr308, mTOR Ser2448, P70s6 kinase Thr389). The experiment in a line: mTOR signaling pathway phosphoprotein levels in prefrontal cortex (FIG. 7, 8). Format: in vivo, rat. The conditions noted are these: for mTOR phosphorylation (Serine 2448) / p70s6K phosphorylation (Threonine 389) / phosphorylation of AKT at thr308: rat PFC; for mTOR phosphorylation (Serine 2448) / p70s6K phosphorylation (Threonine 389): lumateperone 3 mg/kg or ketamine 30 mg/kg i.p.; for mTOR phosphorylation (Serine 2448) / phosphorylation of AKT at thr308: 1 hour and 24 hours; for p70s6K phosphorylation (Threonine 389): over the 24 hour period; for phosphorylation of AKT at thr308: one i.p. injection, lumateperone 3 mg/kg or ketamine 30 mg/kg, vs saline. As for the experimental part: It is known that upstream and downstream effectors of the mTOR (e.g., mTORC1) signaling pathway are increased in the mPFC of rats 1 hour and 24 hours after administration of the rapid-acting antidepressant ketamine.
Pre-frontal cortical phosphorylation levels of AKT (at Threonine 308), mTOR (at Serine 2448) or P70s6 kinase (at Threonine 389) are evaluated after normalization to total protein levels for each target, at both 1 hour and 24 hours. Results are shown as the percent relative change compared to placebo (saline).

The test system is the same in data set [4]. Described as above. Format: in vivo, rat. The conditions noted are these: adult rats; lumateperone 1 to 8 mg/kg i.p., ketamine 30 mg/kg; 60 min, 90 min or 24 hours.
The conditions of data set [5]: cited from earlier work.
A short description of data set [6]: Safety and tolerability in humans. It is filed as in vivo.
The nature of data set [7]: Symptoms of depression in patients with schizophrenia. It is filed as in vivo, human.
Data set [8] relates to serum cytokines (IL-1β, IL-6, TNF, IL-10, IFN-gamma). The data set can be described thus: Restraint stress: serum cytokines by MSD multiplex (FIG. 2). It is filed as in vivo, mice. The following applies: pre-treatment 3 mg/kg i.p., 2 h restraint stress. As for the experimental part:
(§1) Male, C57/B16 mice (n=6-7/group) are divided into three groups—control (vehicle alone, no stress), vehicle—stress (vehicle, i.p.), or ITI-007—stress (3 mg/kg, i.p. in vehicle). For induction of stress, mice are placed in a plastic “decapicones” and placed on the bottom of a warm, clean rodent cage for a 2 h period. These plastic “decapicones” produce an acute restraint stress which triggers neuroinflammation in both hippocampal tissue and peripherally (as shown by serum). At the end of the stress exposure, mice are killed; blood is taken for serum preparation and brain tissue for analysis. Serum is prepared from blood; cytokine measures are performed using MSD multiplex analysis. Brain tissue is analyzed by qPCR for pro-inflammatory cytokine mRNA expression.

A short description of data set [9]: Clinical studies in acute exacerbated schizophrenia: emotional experience symptoms. The following applies: 60 mg P.O. once daily, up to 28 days; patients with acute exacerbated schizophrenia; two clinical studies.
Data set [10] deals with NMDA receptor currents in mPFC pyramidal neurons. The data set can be described thus: NMDA currents in mPFC slices, whole-cell patch clamp (FIG. 4). It is filed as cell-based, rat.
In data set [11] the test system is hippocampal cytokine mRNA (IL-1β, IL-6, TNFα, CCL2, IL-4, IL-10). The data set can be described thus: LPS-induced stress: hippocampal cytokine mRNA by qPCR (FIG. 9, 10). It is filed as in vivo, mice. As for the experimental part: Male, C57/B16 mice (n=6-12/group) are divided into five groups-control (vehicle/saline), vehicle/LPS, and […] at three different doses of ITI-007. Mice are first injected i.p. with either vehicle (5% DMSO, 5% Tween, 15% PEG, 75% water) or ITI-007 at 0.3 mg/kg, 3.0 mg/kg or 8.0 mg/kg. The mice are then immediately injected s.c. with either 0.9% saline or with 500 μg/kg lipopolysaccharide (LPS) diluted in 0.9% saline. After two hours, the animals are sacrificed, and hippocampal slices are obtained and analyzed for cytokine mRNA using qPCR. The results are shown in FIG. 9, normalized to the control group using the delta ct method. […] The results are shown in FIG. 10, normalized to the control group.
(In general: Real-time PCR tracks product formation cycle by cycle.)

The test system of data set [12] is hippocampal gene expression. The experiment in a line: NanoString Mouse Neuropathology panel, hippocampal mRNA after LPS. The conditions noted are these: Lumateperone/LPS compared to vehicle/LPS, 3 mg/kg i.p., 2 hours. Format: in vivo, mice. As for the experimental part:
Immediately after this injection, the mice are injected with either LPS (500 μg/kg diluted in 0.9% saline) or with 0.9% saline. After 2 hours, the mice are sacrificed, and hippocampal mRNA is obtained, as described in Example 1. Hippocampal RNA concentration and integrity are evaluated using an Agilent 2100 Bioanalyzer. Sample preparation, hybridization and detection are carried out according to NanoString manufacturer's instructions (NanoString technologies, WA). RNA (100 ng) expression profiling is performed using the nCounter NanoString Mouse Neuropathology panel, and data are analyzed using the nSolver software to produce and compare direct counts of mRNA. […] The neuropathology panel was developed to include genes of relevance for research in models of neurodegenerative and neurological disorders, such as Alzheimer's disease, Parkinson's disease, Amyotrophic Lateral Sclerosis, Frontotemporal Dementia, and Huntington's disease. The panel includes 770 genes associated with themes of neurotransmission, neuron-glia interaction, neuroplasticity, cell structure integrity, neuroinflammation and metabolism

The test system of data set [13] is AMPA receptor currents in mPFC pyramidal neurons. The experiment in a line: AMPA currents in mPFC slices, whole-cell patch clamp (FIG. 5, 6). It is filed as cell-based. The conditions noted are these: bath applied to rat mPFC slices, 3-100 nM, 5 min later. The source says: Combined administration of the antipsychotic, olanzapine, and the SSRI, fluoxetine, similarly induces rapid antidepressant activity in humans and animals (Tohen et al., 2010); likewise, combined application of olanzapine and fluoxetine is required to induce AMPA receptor currents in vitro.
In general terms: In patch-clamp work, channel activity is measured electrically.

Data set [14] has as its system hippocampal pro- and anti-inflammatory cytokine expression. The data set can be described thus: Restraint stress: hippocampal cytokine expression by qPCR (FIG. 1). It is filed as in vivo, mice. The conditions noted are these: 3 mg/kg i.p., 2 h restraint stress, not statistically significant. As for the experimental part: as §1
The mark [15] stands for this setting: 0.3, 3.0 or 8.0 mg/kg i.p., co-injection with LPS 500 μg/kg s.c., 2 hours, FIG. 9.

Chain of serotonin transporter (SERT) (P31645 whole entry, species assumed): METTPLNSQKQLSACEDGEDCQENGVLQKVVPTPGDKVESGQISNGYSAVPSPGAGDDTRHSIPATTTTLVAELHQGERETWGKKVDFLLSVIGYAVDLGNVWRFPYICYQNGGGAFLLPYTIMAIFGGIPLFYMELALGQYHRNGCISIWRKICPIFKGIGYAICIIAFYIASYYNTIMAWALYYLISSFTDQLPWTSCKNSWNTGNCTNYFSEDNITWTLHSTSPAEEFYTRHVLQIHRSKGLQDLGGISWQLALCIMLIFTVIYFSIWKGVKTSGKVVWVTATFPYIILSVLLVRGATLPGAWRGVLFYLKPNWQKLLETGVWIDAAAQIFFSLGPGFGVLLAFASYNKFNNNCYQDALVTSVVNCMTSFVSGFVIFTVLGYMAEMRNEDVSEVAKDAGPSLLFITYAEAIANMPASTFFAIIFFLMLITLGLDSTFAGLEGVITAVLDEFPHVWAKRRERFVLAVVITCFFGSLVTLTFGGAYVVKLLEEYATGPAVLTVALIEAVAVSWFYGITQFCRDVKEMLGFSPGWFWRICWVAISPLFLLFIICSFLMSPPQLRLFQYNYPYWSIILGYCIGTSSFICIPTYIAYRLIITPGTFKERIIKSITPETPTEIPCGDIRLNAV

Consider `CN1CCN2c3c(cccc31)[C@@H]1CN(CCCC(O)c3ccc(F)cc3)CC[C@@H]12` (stereo partly drawn) [IC200131], for which the antidepressant-like behaviors entry in data set [1] is listed as “elicit antidepressant-like behaviors”. The SERT inhibition entry in data set [2] is reported as “high SERT inhibition”.

For `CNC1(c2ccccc2Cl)CCCCC1=O` (stereo not drawn) [ketamine, reference compound], in the data set with phosphor-mTOR, the “onset of induction of phosphor-mTOR after administration” value is not above 30 min. In data set [3], the “mTOR phosphorylation (Serine 2448)” value is reported as “Neither ketamine nor lumateperone results in a change”, the “p70s6K phosphorylation (Threonine 389)” value is recorded as “transiently increase” and the “phosphorylation of AKT at thr308” value is “increase phosphorylation”. Moreover, the “activation of the mTORC1 signaling pathway in mPFC (p-Akt thr308, p-P70S6K)” value in [4] is recorded as “rapidly activates”. The “ratings on the Hamilton Depression Rating Scale (HDRS) compared to placebo” value in data set [5] (40-minute infusion, total dose 0.5 mg/kg, after 24 hours, Berman et al.) is listed as “significantly improved ratings”. In [5] (intravenous infusion), the “onset of effects after intravenous infusion” value was approximately 4 h and the persistence of effects result is reported as “up to 2 weeks”.

As for `CN1CCN2c3c(cccc31)[C@@H]1CN(CCCC(=O)c3ccc(F)cc3)CC[C@@H]12` [Lumateperone, 4-((6bR,10aS)-3-methyl-2,3,6b,9,10,10a-hexahydro-1H-pyrido[3′,4′:4,5]pyrrolo[1,2,3-de]quinoxalin-8(7H)-yl)-1-(4-fluorophenyl)-1-butanone], in [6], the safety and tolerability entry is “safe and well-tolerated”. The symptoms of depression entry in data set [7] is “improves symptoms of depression”. In addition, in [3] (compared with ketamine 30 mg/kg), the “duration of effect on phospho-protein levels at 24 hours” value is on record as “longer lasting effect compared with ketamine”. For the same compound, the “AKT thr308 phosphorylation effect at 24 hours versus ketamine” value in [3] (lumateperone 3 mg/kg vs ketamine 30 mg/kg i.p., not declining in intensity (FIG. 8)) is recorded as “stronger at 24 hours than for ketamine”. Also, in data set [3], the “mTOR phosphorylation (Serine 2448)” value was “Neither ketamine nor lumateperone results in a change”, the “p70s6K phosphorylation (Threonine 389)” value is “progressively increases” and the “phosphorylation of AKT at thr308” value was “increase phosphorylation”. In data set [8], the “stress effects on serum IL-1ρ and IL-6” value is given as “significantly attenuates”; the “stress effects on serum TNF and IL-10” value is listed as “trends, but not statistically significant”. The “symptoms of emotional experience compared to placebo” value in data set [9] was “significant and unexpected improvement”. The antidepressant-like behaviors result in data set [1] is given as “elicit antidepressant-like behaviors”. For the same compound, in data set [10] (bath applied to rat mPFC slices, 3-100 nM, 5 min later), the NMDA currents entry is “enhanced”. Also, the “effect on NMDA and AMPA currents in the presence of the D1 receptor antagonist SCH-23390” value in [10] (lumateperone 30 nM, SCH-23390 1 μM) was “fully blocked”. For the same compound, the “activation of the mTORC1 signaling pathway in mPFC (p-Akt thr308, p-P70S6K)” value in data set [4] is on record as “rapidly activates”. Besides, the “hippocampal inflammatory cytokine production, delayed dosing” value in data set [11] (3.0 mg/kg, given 30 minutes after LPS, FIG. 10) is “suppresses inflammatory cytokine production”. Moreover, in [11] (setting [15]), the “hippocampal anti-inflammatory cytokine mRNA (IL-4, IL-10)” value is on record as “significantly enhanced” and the “hippocampal pro-inflammatory cytokine mRNA (IL-1β, IL-6, TNFα, CCL2)” value is on record as “significantly attenuated”. The SERT inhibition entry in data set [2] was “very high SERT inhibition”. For the same compound, in [12], the “Linear Change, down-regulated genes: Ctns, Jun, Polr2l, Usp21, Csf1, Sirt1, Atf4, Fclrls” value is on record as 0.80-0.85 fold; the “Linear Change, down-regulated genes: Hc, Osmr” value is <0.500-fold; the “Linear Change, down-regulated genes: Nfe2l2, Naglu, Pla2g4b, Npas4, Nos3” value is reported as 0.75-0.80-fold; the “Linear Change, down-regulated genes: Ptgs2, Cp, Cntf, Tnfrsf1a, Il1R1” value was 0.5-0.75-fold. Besides, in data set [12], the “Linear Change, up-regulated gene: Cldn5” value is on record as more than 1.5 fold; the “Linear Change, up-regulated genes: Egr1, Gata2, Olig2” value is listed as 1.25-1.5 fold; the “Linear Change, up-regulated genes: Phf21a, Islr2, Ngf, Arrb2, Homer1, Notch1, Rapgef2, Pde4d” value was 1.1-1.25 fold; the “Linear Change, up-regulated genes: Syt4, Adcy9, Gabrb2, Slc8a1, Inppf5, Scn1a, Pten, Crebbp” value is on record as 1.0-1.1 fold. Moreover, the AMPA currents result in [13] is recorded as “enhanced”. Also, in [14], the “hippocampal CCL2 and IL-10 levels” value is “elevated”; the “hippocampal expression of pro-inflammatory cytokines by qPCR” value is listed as “generally depressed”.
